Tests used:
[1] = system: "Long-Haul" Covid-19; test: Treatment of "Long-Haul" Covid-19 symptoms in the same patient; assay type: in vivo, human; conditions: for effect of added direct intranasal/lung inhalation: 0.1 ml of the 6% solution, 1-2 times/day
Description: After patient had discontinued treatment above for several weeks after the first round of disease, subsequent putative recurrent post-acute (“long-haul”) symptoms of Covid-19. These included malaise, fatigue, brain fog, myalgia and musculoskeletal pain, and shortness of breath. […] Treatment was titrated to a clinical response, with a maximum dose of 200 mg/day of Tempol. […] At two such interludes, in place of the Tempol, patient took 100 mg of phenylbutylnitrone (PBN).

[2] = system: Covid-19, Omicron strain; test: Treatment of "Break-Thru" Covid-19 infection in the same patient; assay type: in vivo, human
[3] = system: nonrespiratory coronavirus unrelated to SARS-CoV-2; conditions: induced by a nonrespiratory coronavirus; cited from earlier work

SMILES | effect of added direct intranasal/lung inhalation [1] | response of long-haul symptoms (malaise, fatigue, brain fog, myalgia and musculoskeletal pain, shortness of breath) ([1]; human, in vivo) | symptoms on withdrawal and repeat treatment ([1]; treatment withdrawn, then repeated) | time to alleviation of upper respiratory tract congestion ([2]; inhalation of 20 mg, one 0.1 ml spritz of the 6% solution per nostril, followed by insufflation) | murine viral encephalomyelitis [3] | long-haul symptoms, oral treatment in place of Tempol ([1]; 100 mg, at two interludes) | long-haul symptoms, nasal/pulmonary inhalation ([1]; 0.1 ml of a 5% solution in water 3-4 times per day) | alleviation of upper respiratory symptoms, alternative intranasal treatments ([2]; intranasal 3% gel (Q-tip) or insufflation of 0.2 ml of 3% solution, compared with 6% Tempol spray)
CC1(C)CC(O)CC(C)(C)N1O [Tempol-H, the hydroxylamine reduced form of the nitroxide 4-hydroxy-2,2,6,6-tetramethylpiperidin-1-yloxy] | proved helpful |  |  |  |  |  |  | 
CC1(C)CC(O)CC(C)(C)N1[O] [Tempol, 4-hydroxy-TEMPO] | proved helpful | responded reversibly | Symptoms returned when the treatment was withdrawn, but responded to repeat treatment | 5 to 10 min | ameliorates |  |  | 
CC(C)(C)[N+]([O-])=Cc1ccccc1 [PBN, 1-alpha-phenyl-tert-butyl nitrone] |  |  |  |  |  | some subjective clearing of symptoms | significant symptomatic relief | effective but the response was slower

— patent US20220280493A1 (priority 2021, published 2022)
